Source: ChEMBL document CHEMBL1201862, “PubChem BioAssay data set” (2004)
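48-hour exposure; five concentrations; linearly interpolated endpoints. At the GI50, growth is halved.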 The source made the active and inactive calls. No stated cut-off is given here; in the data, active = GI50 up to about 1.1 µM and inactive = higher.

How the values were obtained:
Test in all cases: NCI tumour cell line growth inhibition, 48 h
786-0 = tested on: 786-0
CCRF-CEM = tested on: CCRF-CEM
HCT-116 = tested on: HCT-116
HL-60 = tested on: HL-60
HT-29 = tested on: HT-29
KM12 = tested on: KM12
MCF7 = tested on: MCF7
MDA-MB-231 = tested on: MDA-MB-231
MDA-MB-435 = tested on: MDA-MB-435
MDA-N = tested on: MDA-N
NCI-H522 = tested on: NCI-H522
OVCAR-8 = tested on: OVCAR-8
PC-3 = tested on: PC-3
RPMI-8226 = tested on: RPMI-8226
SF-268 = tested on: SF-268
SK-MEL-28 = tested on: SK-MEL-28
SK-MEL-2 = tested on: SK-MEL-2
SK-MEL-5 = tested on: SK-MEL-5
T47D = tested on: T47D
UACC-62 = tested on: UACC-62

Measured: GI50

O=c1cccccc1O [TROPOLONE]
inactive: 786-0 55.3 µM | CCRF-CEM 17.4 µM | HCT-116 32 µM | HL-60 11.9 µM | HT-29 41.8 µM | KM12 > 100 µM | MCF7 44 µM | MDA-MB-231 > 100 µM | MDA-MB-435 > 100 µM | MDA-N > 100 µM | NCI-H522 33.3 µM | OVCAR-8 32.9 µM | PC-3 83.4 µM | RPMI-8226 86.9 µM | SF-268 35.7 µM | SK-MEL-28 > 100 µM | SK-MEL-2 > 100 µM | SK-MEL-5 83 µM | T47D 52.8 µM | UACC-62 96.6 µM

Cc1nc2c(o1)C(=O)c1ccccc1/C2=N/c1ccc(N2CCOCC2)cc1
inactive: 786-0 22.6 µM | CCRF-CEM 4.57 µM | HCT-116 3.35 µM | HL-60 1.83 µM | HT-29 24.8 µM | KM12 16 µM | MCF7 2.77 µM | MDA-MB-231 2.7 µM | MDA-MB-435 1.94 µM | MDA-N 1.93 µM | NCI-H522 2.48 µM | OVCAR-8 2.81 µM | PC-3 2.08 µM | RPMI-8226 3.38 µM | SF-268 4.48 µM | SK-MEL-28 3.15 µM | SK-MEL-2 2.75 µM | SK-MEL-5 1.79 µM | T47D 3.01 µM | UACC-62 2.03 µM

COC(=O)[C@]1(c2cc3ccccc3n2S(=O)(=O)c2ccccc2)CC2CCC1NC2 (stereo not given in full)
inactive: 786-0 14.3 µM | CCRF-CEM 16.1 µM | HCT-116 13.7 µM | HL-60 2.85 µM | HT-29 12.4 µM | KM12 15.1 µM | MCF7 13.2 µM | MDA-MB-231 14.1 µM | MDA-MB-435 14.2 µM | MDA-N 14.7 µM | NCI-H522 14.3 µM | OVCAR-8 14.9 µM | PC-3 12.1 µM | RPMI-8226 6.65 µM | SF-268 16.8 µM | SK-MEL-28 16.8 µM | SK-MEL-2 16.7 µM | SK-MEL-5 13 µM | T47D 12.2 µM | UACC-62 14.5 µM
